Data on 4 molecules can be found in paper PMC9501899 (Journal of the American Chemical Society, 2022).

Like-named read-outs stand apart in the source and are kept apart here.

The target in one series is T1, LRRK2-NanoLuc (Homo sapiens, UniProt Q5S007).
T1 construct: host or cells: HEK293
In words: NanoBRET LRRK2 target engagement assay in HEK293 cells. Type of series: binding. To be noted: for IC50: permeabilized HEK293 cells. As for the experimental part: Figure 9 Binding affinities to VHL and LRRK2. (A) Binding affinity of the tested compounds to VHL using the FP assay. […] NanoBRET target engagement assays of tested compounds to VHL (B) and LRRK2 (C) in permeabilized and live-cell modes. The indicated compounds were titrated into HEK293 cells transfected with VHL-NanoLuc (B) or LRRK2-NanoLuc fusion (C) in the presence of VHL tracer (B) or LRRK2 tracer (C). 0.25 and 0.5 μM VHL tracers were used for the permeabilized and live mode VHL engagement assays separately. 0.125 and 0.5 μM of LRRK2 tracer were used for the permeabilized and live mode LRRK2 engagement assays separately. The fractional occupancy of the tracers is plotted against the tested compounds’ concentrations and fitted into “nonlinear regression, one site-log IC50” to obtain the IC50 values of each compound against both permeabilized and live cells, separately. Data points are presented as mean ± SEM from three independent experiments. (D) The IC50 ratios between permeabilized and live mode target engagements of each compound were used to compare their permeabilities.
For VHL and LRRK2 target engagement experiments in live and permeabilized cells, the HEK293 cells were transfected with the VHL-NanoLuc fusion vector (Promega, N275A) or LRRK2-NanoLuc fusion vector (Promega, NV3401) following Promega’s protocol and seeded into a white 384-well plate (Corning3570) at a density of 6000 cells/well. […] The filtered luminescence was measured within 10 min following the addition of the substrate on a GloMax Discover microplate reader (Promega) or a PHERAstar (BMG LABTECH) plate reader equipped with a 450 nm bandpass filter (donor) and a 600 nm long-pass filter (acceptor). […] The plates were then cooled down, and a NanoBRET NanoGlo Substrate and an Extracellular NanoLuc Inhibitor (Promega, N2160) were added before performing the same NanoBRET reading as the permeabilized mode on plate readers. […]
For orientation: Bioluminescence resonance energy transfer reports proximity on the nanometre scale.

For a further series, the target named is T2, WT LRRK2 (Mus musculus, UniProt Q5S006).
T2 construct: endogenous in cells; host or cells: wild-type primary MEFs
In words: LRRK2 degradation in WT MEFs by Western blotting. It is filed as cell-based. As for the experimental part:
(§1) These PROTACs were then biologically evaluated in mouse embryonic fibroblasts (MEFs) by Western blotting. Briefly, MEFs were treated with compounds at 33 nM and 1 μM for 4 h (Figure 2) and 24 h (Figure S2) separately, and the intracellular level of LRRK2, phosphorylated LRRK2 at Ser935, and phosphorylated Rab10 (pRab10) at Thr73 was determined. Rab10[5],[49] is one of the bona fide substrates of LRRK2, whose phosphorylation status is directly affected by the LRRK2 kinase activity and protein level. Phosphorylation of LRRK2 at Ser935 is a well-studied biomarker site used to assess the efficacy of type 1 LRRK2 inhibitors.[30]
(§2) Primary MEFs were generated as described in a previous study.[80] Briefly, the uterine horn was collected from adult female mice at day E12.5 and transferred to a 10 cm tissue culture dish containing cold PBS. Two forceps were used to tear the yolk sacs to isolate each embryo. Forceps were cleaned thoroughly with 70% ethanol between each embryo isolation. The embryos were culled, and a tissue piece was collected in a polymerase chain reaction (PCR) tube for genotyping. The red tissue of the embryo was removed, and the remainder was minced with a scalpel blade and incubated with a 7.5 mL trypsin–ethylenediaminetetraacetic acid (EDTA) solution for 10 min in a 37 °C, 5% CO2 tissue culture incubator. The dish was removed from the incubator and checked under a light microscope for single cells. Complete media (7.5 mL) was added to the trypsinized cells, and the cell suspension was transferred to a 15 mL Falcon tube and centrifuged at 1200 rpm for 5 min at room temperature. The trypsin was aspirated, the cell pellet was resuspended in a 5 mL fresh complete media, and the cell suspension was plated in a 60 mm tissue culture dish and incubated in a 37 °C, 5% CO2 tissue culture incubator. The MEFs at this stage were considered as passage 0 and were passaged and expanded for experimental use once the genotype was confirmed by allelic sequencing and immunoblotting. MEFs were cultured in Dulbecco’s modified Eagle’s medium (DMEM) containing 10% (v/v) fetal bovine serum (FBS), 2 mM L-glutamine, 100 U/mL penicillin, and 100 μg/mL streptomycin supplemented with 1× nonessential amino acids and 1 mM sodium pyruvate.
(§3) Culturing and passaging of adherent cell lines were carried out using an aseptic technique in CL1 or CL2 (for PBMC isolation) biological safety cabinets. All cells were incubated in a 37 °C incubator with 5% CO2. Cell lines were regularly tested for mycoplasma contamination. For Western blot assay, the cells were seeded in six-well plates. For immunoprecipitation of LRRK2, SH-SY5Y cells (cultured in DMEM-F12, supplemented with 15% (v/v) FBS, 100 U/mL penicillin and 100 μg/mL streptomycin, 1× nonessential amino acids, and 1 mM sodium pyruvate) were seeded in a 10 cm dish. All cells were treated with the indicated compounds such that the final concentration of DMSO was 0.1%. Following the treatment of cells with compounds at indicated concentrations and time periods, the media was removed and the cells were washed with PBS and lysed in a 100 μL ice-cold complete lysis buffer containing 50 mM tris–HCl pH 7.4, 1 mM EGTA, 10 mM 2-glycerophosphate, 50 mM sodium fluoride, 5 mM sodium pyrophosphate, 270 mM sucrose, supplemented with 1 μg/mL microcystin-LR, 1 mM sodium orthovanadate, complete EDTA-free protease inhibitor cocktail (Roche), and 1% (v/v) Triton X-100. The cells were immediately placed on ice and were scraped and collected into 1.5 mL Eppendorf tubes. Cell lysates were incubated on ice for 10 min prior to centrifugation at 15 000g at 4 °C for 15 min.
(In general: Immunoblotting shows a protein as a band on a membrane.)

The subject of a further series is Rab10-pThr73. Description: Rab10 dephosphorylation in G2019S LRRK2 MEFs by Western blotting. It is filed as cell-based, mouse. The method, then:
as §1, §2, §3

The mark [1] stands for this setting: Mus musculus, 4 h, G2019S LRRK2 MEFs, read-out: EC50 G2019S pRab10.

T1 sequence (Q5S007 whole entry): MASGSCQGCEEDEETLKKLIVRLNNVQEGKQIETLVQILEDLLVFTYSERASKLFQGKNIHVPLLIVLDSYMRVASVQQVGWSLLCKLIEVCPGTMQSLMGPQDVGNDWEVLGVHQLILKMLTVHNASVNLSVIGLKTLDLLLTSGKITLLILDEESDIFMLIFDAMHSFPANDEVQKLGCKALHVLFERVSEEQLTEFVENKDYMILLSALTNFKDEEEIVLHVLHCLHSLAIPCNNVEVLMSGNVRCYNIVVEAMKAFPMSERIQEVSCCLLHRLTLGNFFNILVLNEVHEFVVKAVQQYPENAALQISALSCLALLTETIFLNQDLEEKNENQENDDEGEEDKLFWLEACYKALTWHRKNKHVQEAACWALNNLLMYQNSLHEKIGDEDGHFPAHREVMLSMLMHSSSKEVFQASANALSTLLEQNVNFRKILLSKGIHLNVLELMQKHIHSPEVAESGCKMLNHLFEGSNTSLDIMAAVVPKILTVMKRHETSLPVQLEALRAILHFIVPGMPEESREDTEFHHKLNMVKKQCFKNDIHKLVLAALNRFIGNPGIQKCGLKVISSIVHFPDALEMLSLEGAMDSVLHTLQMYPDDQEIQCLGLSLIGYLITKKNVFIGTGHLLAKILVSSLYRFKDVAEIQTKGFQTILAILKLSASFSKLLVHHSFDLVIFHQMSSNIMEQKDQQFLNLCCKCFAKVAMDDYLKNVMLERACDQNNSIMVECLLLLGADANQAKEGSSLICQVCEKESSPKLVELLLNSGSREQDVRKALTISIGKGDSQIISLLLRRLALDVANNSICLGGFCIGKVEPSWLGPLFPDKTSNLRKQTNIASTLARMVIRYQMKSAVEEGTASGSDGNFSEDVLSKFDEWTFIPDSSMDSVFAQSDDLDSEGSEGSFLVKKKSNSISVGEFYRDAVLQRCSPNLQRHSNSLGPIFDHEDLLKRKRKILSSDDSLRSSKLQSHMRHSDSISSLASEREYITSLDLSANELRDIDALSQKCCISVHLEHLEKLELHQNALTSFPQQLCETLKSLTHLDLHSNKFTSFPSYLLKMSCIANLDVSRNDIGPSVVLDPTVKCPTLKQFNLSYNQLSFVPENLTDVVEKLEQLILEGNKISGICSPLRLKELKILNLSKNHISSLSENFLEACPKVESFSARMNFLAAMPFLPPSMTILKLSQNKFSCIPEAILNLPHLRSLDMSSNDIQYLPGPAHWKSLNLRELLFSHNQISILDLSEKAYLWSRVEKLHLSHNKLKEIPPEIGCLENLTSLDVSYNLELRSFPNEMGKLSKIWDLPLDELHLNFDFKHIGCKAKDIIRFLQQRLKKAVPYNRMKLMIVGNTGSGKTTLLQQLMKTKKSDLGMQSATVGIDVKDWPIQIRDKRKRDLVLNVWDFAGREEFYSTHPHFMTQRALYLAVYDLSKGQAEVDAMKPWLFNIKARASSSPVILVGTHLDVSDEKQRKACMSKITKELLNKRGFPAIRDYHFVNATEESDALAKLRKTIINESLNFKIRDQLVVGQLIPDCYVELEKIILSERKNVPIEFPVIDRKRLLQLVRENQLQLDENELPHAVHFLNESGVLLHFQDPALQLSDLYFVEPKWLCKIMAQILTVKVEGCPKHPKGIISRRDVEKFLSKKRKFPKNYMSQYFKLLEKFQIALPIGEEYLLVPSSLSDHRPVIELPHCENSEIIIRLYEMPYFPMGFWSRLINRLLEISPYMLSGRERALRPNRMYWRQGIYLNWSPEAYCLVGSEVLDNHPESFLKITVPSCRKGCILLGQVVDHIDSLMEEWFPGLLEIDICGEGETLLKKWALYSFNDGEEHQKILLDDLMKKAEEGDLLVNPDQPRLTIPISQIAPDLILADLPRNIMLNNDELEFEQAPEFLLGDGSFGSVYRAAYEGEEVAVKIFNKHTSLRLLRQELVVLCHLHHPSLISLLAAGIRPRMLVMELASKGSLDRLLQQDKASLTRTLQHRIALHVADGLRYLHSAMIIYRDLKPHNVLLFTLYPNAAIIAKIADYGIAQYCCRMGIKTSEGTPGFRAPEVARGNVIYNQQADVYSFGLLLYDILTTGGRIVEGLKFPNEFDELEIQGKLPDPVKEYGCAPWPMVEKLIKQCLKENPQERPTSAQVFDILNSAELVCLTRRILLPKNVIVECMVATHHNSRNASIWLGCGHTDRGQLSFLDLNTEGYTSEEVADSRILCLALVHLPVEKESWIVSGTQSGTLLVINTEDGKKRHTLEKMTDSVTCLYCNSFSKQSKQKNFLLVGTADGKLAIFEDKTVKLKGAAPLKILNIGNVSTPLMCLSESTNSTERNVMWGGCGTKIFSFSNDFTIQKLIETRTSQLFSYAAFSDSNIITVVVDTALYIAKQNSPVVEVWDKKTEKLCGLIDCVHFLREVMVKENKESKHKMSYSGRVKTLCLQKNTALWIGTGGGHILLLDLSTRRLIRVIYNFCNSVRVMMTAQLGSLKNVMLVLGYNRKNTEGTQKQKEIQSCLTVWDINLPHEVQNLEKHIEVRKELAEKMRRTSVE
T2 sequence (Q5S006 whole entry): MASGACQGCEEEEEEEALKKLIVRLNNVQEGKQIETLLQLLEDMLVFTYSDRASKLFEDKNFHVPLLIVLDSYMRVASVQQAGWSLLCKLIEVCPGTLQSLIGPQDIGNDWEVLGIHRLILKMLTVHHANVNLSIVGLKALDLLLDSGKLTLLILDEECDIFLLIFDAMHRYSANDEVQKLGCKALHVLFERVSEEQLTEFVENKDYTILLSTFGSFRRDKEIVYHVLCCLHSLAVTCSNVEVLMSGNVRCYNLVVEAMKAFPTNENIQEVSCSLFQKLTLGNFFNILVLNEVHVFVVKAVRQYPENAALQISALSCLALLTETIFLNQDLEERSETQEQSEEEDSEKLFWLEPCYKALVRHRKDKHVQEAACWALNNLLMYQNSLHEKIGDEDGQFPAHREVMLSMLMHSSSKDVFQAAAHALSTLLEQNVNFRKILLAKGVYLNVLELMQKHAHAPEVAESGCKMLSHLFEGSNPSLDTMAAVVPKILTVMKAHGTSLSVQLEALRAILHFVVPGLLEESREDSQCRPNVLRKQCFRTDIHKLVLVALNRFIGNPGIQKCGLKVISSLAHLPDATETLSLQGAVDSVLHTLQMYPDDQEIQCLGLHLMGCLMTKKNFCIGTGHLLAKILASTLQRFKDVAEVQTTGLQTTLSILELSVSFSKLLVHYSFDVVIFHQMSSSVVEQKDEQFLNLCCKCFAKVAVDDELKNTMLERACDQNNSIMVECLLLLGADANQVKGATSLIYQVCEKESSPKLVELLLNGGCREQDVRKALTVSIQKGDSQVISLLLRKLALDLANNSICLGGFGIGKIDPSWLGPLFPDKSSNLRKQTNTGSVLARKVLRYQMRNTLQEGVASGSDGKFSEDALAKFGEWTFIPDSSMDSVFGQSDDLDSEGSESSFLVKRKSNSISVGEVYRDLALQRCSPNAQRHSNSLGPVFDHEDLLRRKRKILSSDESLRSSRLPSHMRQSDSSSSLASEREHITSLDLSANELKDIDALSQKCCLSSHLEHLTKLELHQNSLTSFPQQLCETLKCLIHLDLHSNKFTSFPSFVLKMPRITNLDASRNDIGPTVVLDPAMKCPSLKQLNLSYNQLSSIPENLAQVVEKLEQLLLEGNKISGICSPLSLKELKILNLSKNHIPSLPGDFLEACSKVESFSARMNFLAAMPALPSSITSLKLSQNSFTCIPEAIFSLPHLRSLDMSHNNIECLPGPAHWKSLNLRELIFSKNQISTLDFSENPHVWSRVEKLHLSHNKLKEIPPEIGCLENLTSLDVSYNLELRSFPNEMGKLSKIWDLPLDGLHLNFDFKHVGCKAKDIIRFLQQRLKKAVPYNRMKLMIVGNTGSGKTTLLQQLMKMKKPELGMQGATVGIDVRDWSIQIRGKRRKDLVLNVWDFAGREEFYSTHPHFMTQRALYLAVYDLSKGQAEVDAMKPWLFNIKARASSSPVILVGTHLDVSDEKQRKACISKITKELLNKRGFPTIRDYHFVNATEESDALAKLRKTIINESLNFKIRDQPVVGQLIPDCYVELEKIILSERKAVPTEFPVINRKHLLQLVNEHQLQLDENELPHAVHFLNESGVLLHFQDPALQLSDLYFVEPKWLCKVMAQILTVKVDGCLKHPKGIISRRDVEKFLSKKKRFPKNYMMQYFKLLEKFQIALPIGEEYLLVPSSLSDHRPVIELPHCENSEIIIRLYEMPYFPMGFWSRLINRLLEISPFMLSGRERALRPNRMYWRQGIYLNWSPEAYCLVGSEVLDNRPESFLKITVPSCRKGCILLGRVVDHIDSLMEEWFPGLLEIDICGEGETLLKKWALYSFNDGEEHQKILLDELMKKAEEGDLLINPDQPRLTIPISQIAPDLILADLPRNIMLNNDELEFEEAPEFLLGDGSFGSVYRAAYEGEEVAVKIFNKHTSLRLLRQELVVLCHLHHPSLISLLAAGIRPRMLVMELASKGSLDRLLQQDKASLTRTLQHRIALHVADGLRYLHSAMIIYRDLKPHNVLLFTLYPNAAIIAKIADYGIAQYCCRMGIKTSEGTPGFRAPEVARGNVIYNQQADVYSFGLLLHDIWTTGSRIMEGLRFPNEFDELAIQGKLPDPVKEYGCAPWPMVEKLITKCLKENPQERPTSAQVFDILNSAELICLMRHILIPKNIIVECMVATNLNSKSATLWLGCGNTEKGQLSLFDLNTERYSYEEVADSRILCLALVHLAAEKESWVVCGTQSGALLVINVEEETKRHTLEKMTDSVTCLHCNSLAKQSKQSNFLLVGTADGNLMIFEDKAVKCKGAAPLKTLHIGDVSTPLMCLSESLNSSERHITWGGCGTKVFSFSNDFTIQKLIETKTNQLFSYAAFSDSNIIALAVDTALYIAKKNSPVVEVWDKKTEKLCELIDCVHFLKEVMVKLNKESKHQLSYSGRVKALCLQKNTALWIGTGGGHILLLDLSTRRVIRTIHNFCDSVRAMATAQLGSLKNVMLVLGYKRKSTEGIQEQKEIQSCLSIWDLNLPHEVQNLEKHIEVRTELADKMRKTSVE

One may read the Dmax as the largest share of the target that was removed. A word on the EC50: it is the midpoint of the concentration-response curve. For the molecule `CNc1nc(Nc2ccc(C(=O)N3CCN(CCOCCOCCSC(C)(C)[C@H](NC(=O)C4(F)CC4)C(=O)N4C[C@H](O)C[C@H]4C(=O)NCc4ccc(-c5scnc5C)cc4)CC3)cc2OC)ncc1Cl` [SD75], the “LRRK2 IC50 Permeabilized/IC50 Live” value at LRRK2-NanoLuc (ratio used to compare permeabilities) came out at 0.43. For the same molecule, the Dmax at 1 µM at WT LRRK2 (1 μM (1000 nM), read-out: Dmax (WT LRRK2), time-dependent degradation) stood at 52%. The molecule also gave a Dmax at WT LRRK2 (dose-dependent degradation, 24 h) of 51%. In the series with Rab10-pThr73 (1 µM), the “GS-pRab10 percent label at the end of the time curve” value is recorded as 74% and the pRab10 dephosphorylated is 75–90%. In addition, the EC50 with Rab10-pThr73 (Mus musculus, 24 h, G2019S LRRK2 MEFs, read-out: EC50 for the dephosphorylation of Rab10 (GS-pRab10)) is 379 nM.

The term IC50 denotes the concentration that inhibits the measured activity by half. Usually DC50 stands for the concentration at which degradation of the target reaches its halfway point. A lower DC50 goes with a more potent degrader. Molecule `CNc1nc(Nc2ccc(C(=O)N3CCN(C[C@H]4CC[C@H](CSC(C)(C)[C@H](NC(=O)C5(F)CC5)C(=O)N5C[C@H](O)CC5C(=O)NCc5ccc(-c6scnc6C)cc5)CC4)CC3)cc2OC)ncc1Cl` (stereo partly drawn) [XL01126, (2S,4R)-1-((R)-3-((((1R,4R)-4-((4-(4-((5-Chloro-4-(methylamino)pyrimidin-2-yl)amino)-3-methoxybenzoyl)piperazin-1-yl)methyl)cyclohexyl)methyl)thio)-2-(1-fluorocyclopropane-1-carboxamido)-3-methylbutanoyl)-4-hydroxy-N-(4-(4-methylthiazol-5-yl)benzyl)pyrrolidine-2-carboxamide] registered an IC50 at LRRK2-NanoLuc of 2600 nM. For the same molecule, it took 32 nM to reach half-maximal degradation on WT LRRK2 (4 h) (DC50). Besides, the inhibition at 0.033 µM in the series with Rab10-pThr73 (Mus musculus, 33 nM/4 h, G2019S LRRK2 MEFs, read-out: pRab10 inhibited) was more than 60%. Moreover, in the series on Rab10-pThr73 (setting [1]), the EC50 turned out to be 15 nM.

`CNc1nc(Nc2ccc(C(=O)N3CCN(C[C@H]4CC[C@@H](CSC(C)(C)[C@H](NC(=O)C5(F)CC5)C(=O)N5C[C@H](O)CC5C(=O)NCc5ccc(-c6scnc6C)cc5)CC4)CC3)cc2OC)ncc1Cl` (some centres unmarked) [XL01134]: the IC50 is 2000 nM at LRRK2-NanoLuc and 12 nM in the series with Rab10-pThr73 (Mus musculus, 4 h, G2019S LRRK2 MEFs, read-out: GS-pRab10 IC50). For the same molecule, the Dmax at 0.3 µM at WT LRRK2 (300 nM, read-out: Dmax,WT, time-dependent degradation) came to 75%. This molecule also had a DC50 at WT LRRK2 (4 h) of 32 nM. The molecule also displayed a pRab10 inhibited in the series with Rab10-pThr73 (33 nM/4 h, G2019S LRRK2 MEFs) of more than 60%.

As to `CNc1nc(Nc2ccc(C(=O)N3CCN(C[C@H]4CC[C@H](CSC(C)(C)[C@H](NC(=O)C5(F)CC5)C(=O)N5C[C@@H](O)C[C@H]5C(=O)NCc5ccc(-c6scnc6C)cc5)CC4)CC3)cc2OC)ncc1Cl` [cis-XL01126, (2S,4S)-1-((R)-3-((((1R,4R)-4-((4-(4-((5-Chloro-4-(methylamino)pyrimidin-2-yl)amino)-3-methoxybenzoyl)piperazin-1-yl)methyl)cyclohexyl)methyl)thio)-2-(1-fluorocyclopropane-1-carboxamido)-3-methylbutanoyl)-4-hydroxy-N-(4-(4-methylthiazol-5-yl)benzyl)pyrrolidine-2-carboxamide], the “degradation of WT LRRK2 (in words)” value at WT LRRK2 (4 h) is listed as “no degradation”. For the same molecule, in the series on Rab10-pThr73 (setting [1]), the EC50 came out at 116 nM.
